The target in one data set is T1, Psy-Lig (Psychromonas sp. SP041, UniProt A0ACD6BAT9).
T1 construct: mature protein, 40-residue periplasmic leader removed (cleavage Ala40/Gln41), 257 residues; N-terminal His tag and TEV site, vector pHMGWA, expressed in E. coli; pre-adenylated with ATP; SeMet form crystallised
Description: X-ray crystal structure, […] Å (SeMet protein). In kind it is binding. As to conditions: covalent; phosphoamide bond to Lys25 side chain (mature numbering), enzyme-adenylate intermediate formed from ATP; active site.

Substrate in data set [1]: Nc1ncnc2c1ncn2[C@@H]1O[C@H](COP(=O)(O)OP(=O)(O)OP(=O)(O)O)[C@@H](O)[C@H]1O
In words: molecular beacon fluorescence nick-sealing assay, Michaelis-Menten fit. The class given is biochemical, Psychromonas sp. SP041. The following applies: 300 nM nicked ds-DNA beacon, 2.0 nM enzyme, 10 mM MgCl2, 100 mM NaCl, 1 mM DTT, 50 mM Tris pH 8.0, 30 °C, ATP 0-50 µM.

By Km is commonly meant the concentration of substrate that gives half-maximal velocity.

As to `Nc1ncnc2c1ncn2[C@@H]1O[C@H](COP(=O)(O)O)[C@@H](O)[C@H]1O` [AMP], the “X-ray crystal structure, 1.65 Å (SeMet protein)” value on Psy-Lig is on record as “AMP bound in the active site was clear in the observed electron density, covalently linked”.

B1: Psy-Lig (Psychromonas sp. SP041) (protein)
chain: QPPPIQLATNYRQDIDVTQYYVSEKLDGIRAYWNGHQLISKQGNIFTAPTWFIASFPTTAMDGELWIARQQFETVSGIARTQDNQNEQWKQIKFMIFDLPKSTVSFEQRINKMQTLVTDTNSPYLQMIEQQKIPNTVALFDLLNKVVMGKGEGLMLHHQDALYQTKRSRDLMKLKKFEDAEATVIAYLPGKGKYEGLLGAILVKNEEGVTFKIGSGFSDEERSTPPPIGSLITYRFTGKTNNNIPRFASFVRIRVIY
notes: mature protein, 40-residue periplasmic leader removed (cleavage Ala40/Gln41), 257 residues; N-terminal His tag and TEV site, vector pHMGWA, expressed in E. coli; pre-adenylated with ATP; SeMet form crystallised
Take B1: the Michaelis-Menten constant (Km) in data set [1] worked out at 3.8 ± 0.7 µM.
